{"source": "patent US10100077B2", "about": "“6-aryl-9-glycosylpurines and use thereof” (UNIVERZITA PALACKEHO V OLOMOUCI, priority 2014, dated 2018)", "key": {"[1]": {"tested_on": "Vaccinia virus and Herpes simplex virus", "details": "cited from earlier work"}, "[2]": {"tested_on": "skin fibroblasts BJ and keratinocytes HaCaT", "assay": "MTT in vitro cytotoxicity test for skin cells", "type": "cell-based", "details": "Homo sapiens; MTT, 72 hour treatment, BJ and HaCaT, maximal concentration 50 microM", "description": "MTT assay is a standard test of toxicity based on photometric measurement of the ability of metabolically active cells to reduce MTT (3-(4,5-dimethylthiazol-2-yl)-2,5-diphenyltetrazolium bromide). Using the assay, the effects of 72 hour treatments with several concentrations of the compounds (sixfold dilution, maximal concentration=50 microM) on viability of skin fibroblasts BJ and keratinocytes HaCaT were evaluated. About 5,000 cells were seeded per well of a 96-well plate 24 hours before the treatment. DMSO vehiculum was used as a negative control. After 72 hour treatment, new medium with MTT (Sigma, M2128) was added to a final concentration of 0.5 mg/ml. After 3 hours, medium was removed and resulting formazan in the cells was dissolved in DMSO. The absorbance was measured at 570 nm (640 nm reference wavelength). The IC50 values were calculated from the dose-response curves. 6-Benzylaminopurine riboside and 6-furfurylaminopurine riboside were used as positive controls they were toxic in the MTT test."}, "[3]": {"assay": "Calcein AM cytotoxicity assay, NIH3T3", "type": "cell-based, mouse", "details": "mouse, NIH3T3 fibroblasts", "source_text": "(§1) One of the parameters used as the base for cytotoxic analysis is metabolic activity of viable cells, such as microtiter assay, which uses the Calcein AM, is now widely used to quantitate cell proliferation and cytotoxicity. The quantity of reduced Calcein AM corresponds to the number of viable cells in culture. The cell lines of breast cancer (MCF-7), mousse fibroblasts (NIH3T3), human erythromleukemia (K562) were used for routine screening of cytotoxicity of the compounds. The cells were maintened in Nunc/Corning 80 cm^2 plastic bottles and grown in media for cell culture (DMEM containing 5 g/l of glucose, 2 mM of glutamin, 100 U/ml of penicilin, […] of streptomycin, 10% of fetal bovine serum and sodium hydrogencarbonate). Cell suspensions were diluted according to cell types and according to expected final cell density (10^4 of cells per well according to characteristics of cell growth), pipetted 80 μl of cell suspension on 96-well microtiter plates. Innoculates were stabilized by 24 hrs preincubation at 37° C. in CO2. Particular concentrations of tested compounds were added in time zero as 20 μl aliquotto wells of microtiter plates. Usually, the compounds were diluted into six concentrations in four-fold dilution series. In routine testing, the highest well concentration was 166.7 μM, of change dependent on the substance. All drug concentrations were examined in duplicates. The incubation of cells with tested derivatives lasted 72 hrs at 37° C., 100% humidity and in the atmosphere of CO2. At the end of the incubation period, the cells were tested and analysed according to the addition of Calcein AM (Molecular probes) solution and the incubation lasted for next 1 hour. Fluorescence (FD) was measured using Labsystem FIA reader Fluorskan Ascent (Microsystems). The survival of tumor cells (The tumor cell survival-TCS) was counted according to equation: […]=(FDwell with derivative/FDcontrol well)×100%. The value of GI50, that is equal to the concentration of compound at which 50% of tumour cells are terminated. To evaluate the antitumor activity was tested toxicity of new derivatives on panel of cell lines of different histogenetic and species origin (Tab. 7, G150 concentration given in μM). […] Effective derivatives killed tumor cells in concentrations close to 0.1 to 50. None of the newly prepared compounds only reached the value."}, "[4]": {"assay": "Calcein AM cytotoxicity assay, MCF-7", "type": "cell-based", "details": "human, MCF-7 breast cancer cells", "source_text": "as §1"}, "BJ skin fibroblasts": {"tested_on": "BJ skin fibroblasts", "assay": "One-step growth curve", "type": "cell-based", "details": "12.5 to 100 μM, counted on 7th and 14th day", "description": "The experiments were performed with BJ skin fibroblasts in 24-well tissue culture plates. About 10,000 cells in culture medium comprising DMEM with 10% FBS were seeded into the individual wells. The cells were allowed to attach for 24 hourse. The test compound was added to final concentrations in a range from 12.5 to 100 μM. DMSO vehiculum was also tested. In order to control for variability, two plate columns (A, D) were treated with DMSO vehiculum. The culture medium with the test chemicals or DMSO vehiculum was changed twice a week. Following trypsinization, the numbers of cells in 4 wells for each concentration were counted using Coulter counter on 7th and 14th day."}, "[5]": {"tested_on": "skin fibroblasts BJ and keratinocytes HaCaT", "assay": "SRB in vitro toxicity test", "type": "cell-based", "details": "Homo sapiens, 72 hour treatment, maximal concentration 50 microM", "description": "SRB (sulforhodamine B) assay is a standard toxicity test based on a photometric measurement of the cellular protein content after the staining with sulphorhodamine B. Using the assay, the effects of 72 hour treatments with several concentrations of the compounds (sixfold dilution, maximal concentration=50 microM) on viability of skin fibroblasts BJ and keratinocytes HaCaT were evaluated. About 5,000 cells were seeded per well of a 96-well plate 24 hours before the treatment. DMSO vehiculum was used as a negative non-toxic control. 6-benzylaminopurine riboside a 6-furfurylaminopurin riboside were used as positive toxic controls. After three days the medium was removed and the cells fixed with 10% (wt/vol) trichloroacetic acid. After the extensive washing in distilled water, 0.4% (wt/vol) solution of SRB in acetic acid was added and the fixed cells were stained for 30 minutes. The unbound stain was washed away by distilled water and the bound SRB was solubilized in unbuffered 10 mM Tris base. Absorbance was measured at 564 nm. IC50 values were calculated from dose-response curves."}, "[6]": {"assay": "Calcein AM cytotoxicity assay, K562", "type": "cell-based, human", "details": "human, K562 erythroleukemia cells", "source_text": "as §1"}}}
{"smiles": "OC[C@H]1O[C@@H](n2cnc3c(NCc4ccccc4)ncnc32)[C@@H](O)[C@@H]1O", "note": "[6-benzylamino-9-β-D-arabinofuranosylpurine]", "values": [{"measurement": "activity in killing Vaccinia virus and Herpes simplex virus", "setting": "[1]", "value": "No effect"}, {"measurement": "IC50", "setting": "[2]", "value": "> 50", "unit": "µM"}, {"measurement": "GI50 at 72 h", "setting": "[3]", "value": "> 100", "unit": "µM"}, {"measurement": "GI50 at 72 h", "setting": "[4]", "value": "> 100", "unit": "µM"}, {"measurement": "influence on cell viability (cell numbers, growth curve)", "setting": "BJ skin fibroblasts", "value": "did not have a negative influence on cell viability"}, {"measurement": "IC50", "setting": "[5]", "value": "> 50", "unit": "µM"}, {"measurement": "GI50 at 72 h", "setting": "[6]", "value": "> 100", "unit": "µM"}]}
